# Test results published in patent publication US20180221352A1, “3-(1H-PYRROLO[2,3-C]PYRIDIN-2-YL)-1H-PYRAZOLO[3,4-B]PYRIDINES AND THERAPEUTIC USES THEREOF” (Samumed, LLC, priority 2015, published 2018).
# Assays:
# Assay type in all cases: cell-based
# [1] = test system: primary human fibroblasts derived from IPF patients (LL29 cells); test: Inhibition of fibrotic process, αSMA staining in TGF-β1 treated fibroblasts; conditions: Fibroblast; for EC50: 96 h, LL29 cells, TGF-β1 20 ng/mL, 4 days, % αSMA positive cells; for inhibition at 10 µM: read-out: percent inhibition at 10 μM
# Experimental: Representative compounds were screened using primary human fibroblasts (derived from IPF patients) treated with TGF-β1 to determine their ability to inhibit the fibrotic process.
# LL29 cells are plated at 1,500 cells/well in 80 μL/well F12 medium supplemented with 1% Fetal Bovine Serum. […] Wells treated with TGF-31 and containing DMSO were used as controls. […] Following incubation for 4 days, SYTOX green nucleic acid stain (Life Technologies [Thermo Fisher Scientific]) was added to the wells at a final concentration of 1 μM and incubated at room temperature for 30 min.
# SW480 colon cancer cells = test: Cell viability assay (CellTiter-Blue); conditions: Homo sapiens; for EC50: 96 h, SW480 cell viability, four days; for inhibition at 10 µM: SW480, 96 h, read-out: percent inhibition at 10 μM
# Experimental: Representative compounds were screened using the following assay procedure to assess the effect on cell viability as described below.
# Approximately 2×10^3 SW480 colon cancer cells were seeded into each well and allowed to incubate in the presence or absence of compound for four days at 37° C./5% CO2. Eight replicates of DMSO-treated cells served as controls and cells treated with compound were performed in duplicate.
# After incubation, 20 μL of CellTiter-Blue (Promega) was added to each well allowed to incubate for approximately 3 hours. This reagent was a buffered solution which contains resazurin, metabolically active cells were able to reduce rezarurin (blue) into resorufin (pink) which was highly fluorescent. This measured fluorescence was used as a readout for cell viability.
# IL-6 = IL-6 inhibition in LPS-stimulated THP-1 cells (HTRF); conditions: Homo sapiens; for inhibition at 10 µM: THP-1, read-out: percent inhibition at 10 μM; for EC50: THP-1 cells, LPS 500 ng/mL, 22 hours, IL6 HTRF
# Experimental: THP-1 cells were cultured in basal media with 1% FBS for 24 hours before the start of the assay. […] THP-1 cells were plated at 5000 cells/well in the 384-well plates and incubated at 37° C. for 2 h. 500 ng/mL of LPS was added after 2 hours and cells were incubated for another 22 hours at 37° C. Plates were spun in a centrifuge for 1 minute at […] and a mixture of anti-IL6 XL665, and anti-IL6 Cryptate diluted in reconstitution buffer (Cisbio Inc.) was added to each well. Following incubation for 3 hrs at room temperature, Homogeneous Time-Resolved Fluorescence (HTRF) was measured using the Envision (Perkin Elmer) at 665 nm and […]. The ratio of fluorescence at 665 nm to 620 nm was used as a readout for IL6 quantification. All samples were processed in duplicate. Readings were normalized to DMSO treated cells and normalized activities were utilized for EC50 calculations using the dose-response log (inhibitor) vs. response−variable slope (four parameters) nonlinear regression feature available in GraphPad Prism 5.0 (or Dotmatics).
# [2] = test system: Wnt activity (Sp5-Luc reporter, SW480 colon carcinoma cells); test: Wnt activity screening assay, Sp5-Luc reporter gene in SW480 cells; conditions: Homo sapiens; for inhibition at 10 µM: SW480, read-out: percent inhibition at 10 μM; for EC50: Sp5-Luc reporter, SW480 cells, overnight incubation
# Description: The screening assay for Wnt activity is described as follows. Reporter cell lines can be generated by stably transducing cancer cell lines (e.g., colon cancer) or primary cells (e.g., IEC-6 intestinal cells) with a lentiviral construct that includes a Wnt-responsive promoter driving expression of the firefly luciferase gene.
# SW480 colon carcinoma cells were transduced with a lentiviral vector expressing luciferase with a human Sp5 promoter consisting of a sequence of eight TCF/LEF binding sites. SW480 cells stably expressing the Sp5-Luc reporter gene and a hygromycin resistance gene were selected by treatment with 150 μg/mL of hygromycin for 7 days. These stably transduced SW480 cells were expanded in cell culture and used for all further screening activities. […] For Sp5-Luc reporter gene assays, the cells were plated at 4,000 cells/well in 384-well plates with medium containing 1% fetal bovine serum and incubated overnight at 37° C. and 5% CO2. Following incubation, 20 μl of BrightGlo luminescence reagent (Promega) was added to each well of the 384-well assay plates. The plates were placed on an orbital shaker for 2 min and then luminescence was quantified using the Envision (Perkin Elmer) plate reader. Readings were normalized to DMSO only treated cells, and normalized activities were utilized for EC50 calculations using the dose-response log (inhibitor) vs. response−variable slope (four parameters) nonlinear regression feature available in GraphPad Prism 5.0 (or Dotmatics).
Compound,EC50 (SW480 colon cancer cells),EC50 (IL-6),EC50 [2],EC50 [1],inhibition at 10 µM (SW480 colon cancer cells),inhibition at 10 µM (IL-6),inhibition at 10 µM [2],inhibition at 10 µM [1]
"Fc1cccc(-c2cncc3[nH]c(-c4n[nH]c5ncc(-c6ccncc6)cc45)cc23)c1 [Compound 18, 3-(4-(3-Fluorophenyl)-1H-pyrrolo[2,3-c]pyridin-2-yl)-5-(pyridin-4-yl)-1H-pyrazolo[3,4-b]pyridine]",1900 nM,> 10 µM,4.15 µM,1230 nM,–,20.3%,–,–
"Fc1ccc(-c2cncc3[nH]c(-c4n[nH]c5ncc(-c6ccccn6)cc45)cc23)cc1 [Compound 56, 3-(4-(4-Fluorophenyl)-1H-pyrrolo[2,3-c]pyridin-2-yl)-5-(pyridin-2-yl)-1H-pyrazolo[3,4-b]pyridine]",5740 nM,> 10 µM,> 10 µM,> 10000 nM,–,25%,15.5%,38.2%
"O=C(Nc1cncc(-c2cnc3[nH]nc(-c4cc5c(-c6ccccc6F)cncc5[nH]4)c3c2)c1)C1CCCC1 [Compound 78, N-(5-(3-(4-(2-Fluorophenyl)-1H-pyrrolo[2,3-c]pyridin-2-yl)-1H-pyrazolo [3,4-b]pyridin-5-yl)pyridin-3-yl)cyclopentanecarboxamide]",638 nM,1.29 µM,0.84 µM,408 nM,–,–,–,–
"c1ccc(-c2cnc3[nH]nc(-c4cc5c(-c6cccnc6)cncc5[nH]4)c3c2)nc1 [Compound 112, 5-(Pyridin-2-yl)-3-(4-(pyridin-3-yl)-1H-pyrrolo[2,3-c]pyridin-2-yl)-1H-pyrazolo[3,4-b]pyridine]",3680 nM,> 10 µM,> 10 µM,2190 nM,–,16.9%,44.2%,–
"O=C(Nc1cncc(-c2cnc3[nH]nc(-c4cc5c(-c6ccncc6)cncc5[nH]4)c3c2)c1)C1CCCC1 [Compound 134, N-(5-(3-(4-(Pyridin-4-yl)-1H-pyrrolo[2,3-c]pyridin-2-yl)-1H-pyrazolo[3,4-b]pyridin-5-yl)pyridin-3-yl)cyclopentanecarboxamide]",> 10000 nM,> 10 µM,> 10 µM,> 10000 nM,10.6%,30%,0%,27.9%
"CCNCc1cncc(-c2cnc3[nH]nc(-c4cc5c(N6CCCCC6)cncc5[nH]4)c3c2)c1 [Compound 174, N-((5-(3-(4-(Piperidin-1-yl)-1H-pyrrolo[2,3-c]pyridin-2-yl)-1H-pyrazolo [3,4-b]pyridin-5-yl)pyridin-3-yl)methyl)ethanamine]",4140 nM,3.4 µM,9.46 µM,3610 nM,–,–,–,–
"O=C(Nc1cncc(-c2cnc3[nH]nc(-c4cc5c(N6CCCCC6)cncc5[nH]4)c3c2)c1)c1ccccc1 [Compound 179, N-(5-(3-(4-(Piperidin-1-yl)-1H-pyrrolo[2,3-c]pyridin-2-yl)-1H-pyrazolo[3,4-b]pyridin-5-yl)pyridin-3-yl)benzamide]",3840 nM,> 10 µM,> 10 µM,4590 nM,–,36.1%,45.1%,–
"c1ncc(-c2cnc3[nH]nc(-c4cc5c(N6CCCCC6)cncc5[nH]4)c3c2)cc1CN1CCCCC1 [Compound 183, 3-(4-(Piperidin-1-yl)-1H-pyrrolo[2,3-c]pyridin-2-yl)-5-(5-(piperidin-1-ylmethyl)pyridin-3-yl)-1H-pyrazolo[3,4-b]pyridine]",3170 nM,> 10 µM,4.98 µM,2400 nM,–,20.3%,–,–

# Continued, in another order:
EC50 (SW480 colon cancer cells),EC50 (IL-6),EC50 [2],Compound,EC50 [1],inhibition at 10 µM (SW480 colon cancer cells),inhibition at 10 µM (IL-6),inhibition at 10 µM [2],inhibition at 10 µM [1]
> 10000 nM,> 10 µM,> 10 µM,"O=C(Nc1cncc(-c2cnc3[nH]nc(-c4cc5c(-c6cccc(F)c6)cncc5[nH]4)c3c2)c1)c1ccccc1 [Compound 11, N-(5-(3-(4-(3-Fluorophenyl)-1H-pyrrolo[2,3-c]pyridin-2-yl)-1H-pyrazolo [3,4-b]pyridin-5-yl)pyridin-3-yl)benzamide]",7570 nM,16.8%,20.2%,22.5%,–
586 nM,0.324 µM,0.532 µM,"O=C(Nc1cncc(-c2cnc3[nH]nc(-c4cc5c(-c6cccc(F)c6)cncc5[nH]4)c3c2)c1)C1CCC1 [Compound 21, N-(5-(3-(4-(3-Fluorophenyl)-1H-pyrrolo[2,3-c]pyridin-2-yl)-1H-pyrazolo [3,4-b]pyridin-5-yl)pyridin-3-yl)cyclobutanecarboxamide]",310 nM,–,–,–,–
1620 nM,> 10 µM,1.63 µM,"CC(C)CC(=O)Nc1cncc(-c2cnc3[nH]nc(-c4cc5c(-c6ccc(F)cc6)cncc5[nH]4)c3c2)c1 [Compound 30, N-(5-(3-(4-(4-Fluorophenyl)-1H-pyrrolo[2,3-c]pyridin-2-yl)-1H-pyrazolo [3,4-b]pyridin-5-yl)pyridin-3-yl)-3-methylbutanamide]",1140 nM,–,24.6%,–,–
2080 nM,0.127 µM,> 10 µM,"CC(C)(C)C(=O)Nc1cncc(-c2cnc3[nH]nc(-c4cc5c(-c6ccc(F)cc6)cncc5[nH]4)c3c2)c1 [Compound 36, N-(5-(3-(4-(4-Fluorophenyl)-1H-pyrrolo[2,3-c]pyridin-2-yl)-1H-pyrazolo [3,4-b]pyridin-5-yl)pyridin-3-yl)pivalamide]",2550 nM,–,–,18.8%,–
1440 nM,3.47 µM,2.94 µM,"O=C(Nc1cncc(-c2cnc3[nH]nc(-c4cc5c(-c6ccc(F)cc6)cncc5[nH]4)c3c2)c1)C1CCCCC1 [Compound 51, N-(5-(3-(4-(4-Fluorophenyl)-1H-pyrrolo[2,3-c]pyridin-2-yl)-1H-pyrazolo [3,4-b]pyridin-5-yl)pyridin-3-yl)cyclohexanecarboxamide]",1180 nM,–,–,–,–
747 nM,3.12 µM,1.01 µM,"CC(C)(C)CC(=O)Nc1cncc(-c2cnc3[nH]nc(-c4cc5c(-c6ccccc6F)cncc5[nH]4)c3c2)c1 [Compound 72, N-(5-(3-(4-(2-Fluorophenyl)-1H-pyrrolo[2,3-c]pyridin-2-yl)-1H-pyrazolo [3,4-b]pyridin-5-yl)pyridin-3-yl)-3,3-dimethylbutanamide]",384 nM,–,–,–,–
> 10000 nM,> 10 µM,> 10 µM,"CCC(=O)Nc1cncc(-c2cnc3[nH]nc(-c4cc5c(-c6cccnc6)cncc5[nH]4)c3c2)c1 [Compound 85, N-(5-(3-(4-(Pyridin-3-yl)-1H-pyrrolo[2,3-c]pyridin-2-yl)-1H-pyrazolo[3,4-b]pyridin-5-yl)pyridin-3-yl)propionamide]",> 10000 nM,10%,34.1%,9.3%,44.2%
> 10000 nM,0.068 µM,> 10 µM,"CC(C)Nc1cncc(-c2cnc3[nH]nc(-c4cc5c(-c6ccncc6)cncc5[nH]4)c3c2)c1 [Compound 124, N-Isopropyl-5-(3-(4-(pyridin-4-yl)-1H-pyrrolo[2,3-c]pyridin-2-yl)-1H-pyrazolo[3,4-b]pyridin-5-yl)pyridin-3-amine]",2400 nM,3.2%,–,15.5%,–
